Paper PMC5218480 (PLoS ONE, 2017)

Test system: MV-4-11 cells
Experiment: Gene expression microarray analysis (Affymetrix PrimeView) and GSEA
Format: cell-based, human
Design: RFU PODN (11730768_x_at) / Fold change /veh PODN (11730768_x_at) / RFU LINC00158 (11744669_a_at) / Fold change /veh LINC00158 (11744669_a_at) / RFU DUSP10 (11751237_a_at) / Fold change /veh DUSP10 (11751237_a_at) / RFU ID3 (11757404_x_at) / Fold change /veh ID3 (11757404_x_at) / RFU PLEKHG5 (11737974_s_at) / Fold change /veh PLEKHG5 (11737974_s_at) / RFU LRRC4B (11730491_at) / Fold change /veh LRRC4B (11730491_at) / RFU GIMAP4 (11747438_a_at) / Fold change /veh GIMAP4 (11747438_a_at) / RFU KRT8 (11758183_x_at) / Fold change /veh KRT8 (11758183_x_at) / RFU CNN1 (11734310_a_at) / Fold change /veh CNN1 (11734310_a_at) / RFU VPS37D (11726825_at) / Fold change /veh VPS37D (11726825_at) / RFU C10orf10 (11716522_x_at) / Fold change /veh C10orf10 (11716522_x_at) / RFU KIR2DL2 /// KIR2DL4 /// KIR2DL5A /// KIR2DL5B /// KIR2DS1 /// KIR2DS2 /// KIR2DS3 /// KIR2DS4 /// KIR3DL3 /// KIR3DL3 /// KIR3DS1 (11738374_at) / Fold change /veh KIR2DL2 /// KIR2DL4 /// KIR2DL5A /// KIR2DL5B /// KIR2DS1 /// KIR2DS2 /// KIR2DS3 /// KIR2DS4 /// KIR3DL3 /// KIR3DL3 /// KIR3DS1 (11738374_at) / RFU C1QL1 (11718748_at) / Fold change /veh C1QL1 (11718748_at) / RFU TMPRSS4 (11747572_a_at) / Fold change /veh TMPRSS4 (11747572_a_at) / RFU HAMP (11756126_x_at) / Fold change /veh HAMP (11756126_x_at) / RFU RNFT2 (11725882_a_at) / Fold change /veh RNFT2 (11725882_a_at) / RFU NR4A2 (11747474_a_at) / Fold change /veh NR4A2 (11747474_a_at) / RFU ABCC12 (11746883_a_at) / Fold change /veh ABCC12 (11746883_a_at) / RFU TMEM136 (11760407_x_at) / Fold change /veh TMEM136 (11760407_x_at) / RFU CLDN22 /// WWC2 (11732394_at) / Fold change /veh CLDN22 /// WWC2 (11732394_at) / RFU HLA-DPB1 (11760878_x_at) / Fold change /veh HLA-DPB1 (11760878_x_at) / RFU SPINT1 (11716480_a_at) / Fold change /veh SPINT1 (11716480_a_at) / RFU GAP43 (11754022_s_at) / Fold change /veh GAP43 (11754022_s_at) / RFU A4GNT (11735810_at) / Fold change /veh A4GNT (11735810_at) / RFU PRB3 (11715151_x_at) / Fold change /veh PRB3 (11715151_x_at) / RFU TUBB4B (11761932_at) / Fold change /veh TUBB4B (11761932_at) / RFU CAPN14 (11732068_a_at) / Fold change /veh CAPN14 (11732068_a_at) / RFU TMCC2 (11721928_a_at) / Fold change /veh TMCC2 (11721928_a_at) / RFU IRGQ (11745062_a_at) / Fold change /veh IRGQ (11745062_a_at) / RFU FAM174B (11720279_a_at) / Fold change /veh FAM174B (11720279_a_at) / RFU TMPRSS4 (11748680_a_at) / Fold change /veh TMPRSS4 (11748680_a_at) / RFU FAM212B (11763350_a_at) / Fold change /veh FAM212B (11763350_a_at) / RFU PLEKHG5 (11743358_a_at) / Fold change /veh PLEKHG5 (11743358_a_at) / RFU ZSCAN30 (11745921_a_at) / Fold change /veh ZSCAN30 (11745921_a_at) / RFU CMKLR1 (11741424_a_at) / Fold change /veh CMKLR1 (11741424_a_at) / RFU LOC101060620 /// MAPK8IP1 (11723275_at) / Fold change /veh LOC101060620 /// MAPK8IP1 (11723275_at) / RFU SPTSSB (11747773_x_at) / Fold change /veh SPTSSB (11747773_x_at) / RFU PRSS12 (11739890_at) / Fold change /veh PRSS12 (11739890_at) / RFU BIN1 (11741810_x_at) / Fold change /veh BIN1 (11741810_x_at) / RFU WNT11 (11732464_a_at) / Fold change /veh WNT11 (11732464_a_at) / RFU C10orf10 (11716521_a_at) / Fold change /veh C10orf10 (11716521_a_at) / RFU C5orf56 (11738089_at) / Fold change /veh C5orf56 (11738089_at) / RFU CYB561 (11721691_x_at) / Fold change /veh CYB561 (11721691_x_at) / RFU ANKRD19P (11752326_a_at) / Fold change /veh ANKRD19P (11752326_a_at) / RFU OR2T12 /// OR2T33 /// OR2T8 (11738714_s_at) / Fold change /veh OR2T12 /// OR2T33 /// OR2T8 (11738714_s_at) / RFU VCAN (11748164_a_at) / Fold change /veh VCAN (11748164_a_at) / RFU JSRP1 (11732532_at) / Fold change /veh JSRP1 (11732532_at) / RFU KRTAP10-11 (11738290_x_at) / Fold change /veh KRTAP10-11 (11738290_x_at) / RFU MYO3A (11730013_a_at) / Fold change /veh MYO3A (11730013_a_at) / RFU EBF3 (11725865_a_at) / Fold change /veh EBF3 (11725865_a_at) / RFU CAMK2N1 (11719241_x_at) / Fold change /veh CAMK2N1 (11719241_x_at) / RFU C5orf56 (11738088_a_at) / Fold change /veh C5orf56 (11738088_a_at) / RFU OLFML3 (11715873_a_at) / Fold change /veh OLFML3 (11715873_a_at) / RFU LOC100653217 /// NTM (11731650_a_at) / Fold change /veh LOC100653217 /// NTM (11731650_a_at) / RFU MAPK11 (11762145_a_at) / Fold change /veh MAPK11 (11762145_a_at) / RFU FIZ1 (11724087_x_at) / Fold change /veh FIZ1 (11724087_x_at) / RFU OASL (11726364_x_at) / Fold change /veh OASL (11726364_x_at) / RFU SOX15 (11748057_x_at) / Fold change /veh SOX15 (11748057_x_at) / RFU CD79A (11719716_a_at) / Fold change /veh CD79A (11719716_a_at) / RFU HIST1H1D (11736915_at) / Fold change /veh HIST1H1D (11736915_at) / RFU CASKIN2 (11723855_a_at) / Fold change /veh CASKIN2 (11723855_a_at) / RFU LOC730098 (11760151_x_at) / Fold change /veh LOC730098 (11760151_x_at) / RFU OR4N2 (11742367_at) / Fold change /veh OR4N2 (11742367_at) / RFU PRRT2 (11749266_a_at) / Fold change /veh PRRT2 (11749266_a_at) / RFU SNX32 (11753110_a_at) / Fold change /veh SNX32 (11753110_a_at) / RFU CDHR5 (11726645_a_at) / Fold change /veh CDHR5 (11726645_a_at) / RFU RCAN1 (11760418_a_at) / Fold change /veh RCAN1 (11760418_a_at) / RFU FAM167A (11723789_a_at) / Fold change /veh FAM167A (11723789_a_at) / RFU FAM26E (11764081_at) / Fold change /veh FAM26E (11764081_at) / RFU ISYNA1 (11749810_s_at) / Fold change /veh ISYNA1 (11749810_s_at) / RFU ACY1 (11761880_at) / Fold change /veh ACY1 (11761880_at) / RFU 11764098_at / Fold change /veh 11764098_at / RFU SAMD14 (11745864_x_at) / Fold change /veh SAMD14 (11745864_x_at) / RFU NPB (11741838_a_at) / Fold change /veh NPB (11741838_a_at) / RFU TMPRSS6 (11731388_a_at) / Fold change /veh TMPRSS6 (11731388_a_at) / RFU KRTAP10-2 (11738614_at) / Fold change /veh KRTAP10-2 (11738614_at) / RFU ARHGAP8 /// PRR5-ARHGAP8 (11727945_x_at) / Fold change /veh ARHGAP8 /// PRR5-ARHGAP8 (11727945_x_at) / RFU KRTAP5-7 /// NADSYN1 (11734609_at) / Fold change /veh KRTAP5-7 /// NADSYN1 (11734609_at) / RFU RASL12 (11751679_a_at) / Fold change /veh RASL12 (11751679_a_at) / RFU CDKN2B (11736163_a_at) / Fold change /veh CDKN2B (11736163_a_at) / RFU PRF1 (11729649_at) / Fold change /veh PRF1 (11729649_at) / RFU, ZNF638 /// ZNF638-IT1 / Fold change vs veh, ZNF638 /// ZNF638-IT1 / RFU, PANK3 / Fold change vs veh, PANK3 / RFU, SH3YL1 / Fold change vs veh, SH3YL1 / RFU, ZEB2 / Fold change vs veh, ZEB2 / RFU, NRIP1 / Fold change vs veh, NRIP1 / RFU, PTTG1IP / Fold change vs veh, PTTG1IP / RFU, CAPN2 / Fold change vs veh, CAPN2 / RFU, MED14 / Fold change vs veh, MED14 / RFU, SNORA58 / Fold change vs veh, SNORA58 / RFU, C1orf63 / Fold change vs veh, C1orf63 / RFU, LRRFIP1 / Fold change vs veh, LRRFIP1 / RFU, NDUFAF7 / Fold change vs veh, NDUFAF7 / RFU, SLC12A2 / Fold change vs veh, SLC12A2 / RFU, IBTK / Fold change vs veh, IBTK / RFU, ESF1 / Fold change vs veh, ESF1 / Fold change vs veh, TMEM50B / RFU, TAOK1 / Fold change vs veh, TAOK1 / RFU, ACBD3 / Fold change vs veh, ACBD3 / RFU, TMA16 / Fold change vs veh, TMA16 / RFU, RWDD3 / Fold change vs veh, RWDD3 / RFU, BCAT1 / Fold change vs veh, BCAT1 / RFU, EDEM3 / Fold change vs veh, EDEM3 / RFU, TMEM33 / Fold change vs veh, TMEM33 / RFU, WDR75 / Fold change vs veh, WDR75 / RFU, AHCTF1 / Fold change vs veh, AHCTF1 / RFU, TFRC / Fold change vs veh, TFRC / RFU, ZDHHC17 / Fold change vs veh, ZDHHC17 / RFU, NOM1 / Fold change vs veh, NOM1 / RFU, ARL8B / Fold change vs veh, ARL8B / RFU, ZBTB11 / Fold change vs veh, ZBTB11 / RFU, TAMM41 / Fold change vs veh, TAMM41 / RFU, KIAA1704 /// LOC100996395 / Fold change vs veh, KIAA1704 /// LOC100996395 / RFU, ING1 / Fold change vs veh, ING1 / RFU, TRMT61B / Fold change vs veh, TRMT61B / RFU, FUBP3 / Fold change vs veh, FUBP3 / RFU, TP53 / Fold change vs veh, TP53 / RFU, TNKS2 / Fold change vs veh, TNKS2 / RFU, ZFP14 / Fold change vs veh, ZFP14 / RFU, ACTR2 / Fold change vs veh, ACTR2 / RFU, PPP3R1 / Fold change vs veh, PPP3R1 / RFU, PIK3R1 / Fold change vs veh, PIK3R1 / RFU, HNRNPA1 / Fold change vs veh, HNRNPA1 / RFU, RNF170 / Fold change vs veh, RNF170 / RFU, ZNF28 / Fold change vs veh, ZNF28 / RFU, RNGTT / Fold change vs veh, RNGTT / RFU, OGT / Fold change vs veh, OGT / RFU, BRD1 / Fold change vs veh, BRD1 / RFU, MARS / Fold change vs veh, MARS / RFU, ZNF655 / Fold change vs veh, ZNF655 / RFU, FAHD1 / Fold change vs veh, FAHD1 / RFU, BDP1 / Fold change vs veh, BDP1 / RFU, LRRCC1 / Fold change vs veh, LRRCC1 / RFU, ARID1A / Fold change vs veh, ARID1A / RFU, ZNF146 / Fold change vs veh, ZNF146 / RFU, ZNF330 / Fold change vs veh, ZNF330 / RFU, GPN3 / Fold change vs veh, GPN3 / RFU, C9orf123 / Fold change vs veh, C9orf123 / RFU, N4BP2L2 / Fold change vs veh, N4BP2L2 / RFU, ARFIP1 / Fold change vs veh, ARFIP1 / RFU, FAM179B / Fold change vs veh, FAM179B / RFU, BCL10 / Fold change vs veh, BCL10 / RFU, UHRF1BP1L / Fold change vs veh, UHRF1BP1L / RFU, BET1 / Fold change vs veh, BET1 / RFU, CNOT2 / Fold change vs veh, CNOT2 / RFU, ZNF268 / Fold change vs veh, ZNF268 / Fold change vs veh, ZNF507 / RFU, DGCR2 / Fold change vs veh, DGCR2 / RFU, WDSUB1 / Fold change vs veh, WDSUB1 / Fold change vs veh, HSP90B1 /// MIR3652 / RFU, ADSS / Fold change vs veh, ADSS / RFU, GK / Fold change vs veh, GK / RFU, ZNF148 / Fold change vs veh, ZNF148 / RFU, TAF9 / Fold change vs veh, TAF9 / RFU, SLC1A5 / Fold change vs veh, SLC1A5 / RFU, SLMO2 / Fold change vs veh, SLMO2 / RFU, ABCC4 / Fold change vs veh, ABCC4 / RFU, LOC101060439 /// RAP1B / Fold change vs veh, LOC101060439 /// RAP1B / RFU, RFX7 / Fold change vs veh, RFX7 / RFU, GTPBP10 / Fold change vs veh, GTPBP10 / RFU, CNEP1R1 / Fold change vs veh, CNEP1R1 / RFU, BIVM-ERCC5 /// ERCC5 / Fold change vs veh, BIVM-ERCC5 /// ERCC5 / RFU, ILF3 / Fold change vs veh, ILF3 / RFU 11762660_at / Fold change /veh 11762660_at / RFU VCAN (11757783_s_at) / Fold change /veh VCAN (11757783_s_at) / RFU DDX43 (11728927_at) / Fold change /veh DDX43 (11728927_at) / RFU KRT8 (11758188_x_at) / Fold change /veh KRT8 (11758188_x_at) / RFU NKD1 (11759106_at) / Fold change /veh NKD1 (11759106_at) / RFU SRD5A1 (11742802_a_at) / Fold change /veh SRD5A1 (11742802_a_at) / RFU TPSAB1 /// TPSB2 (11721975_s_at) / Fold change /veh TPSAB1 /// TPSB2 (11721975_s_at) / RFU GSTM3 (11746129_a_at) / Fold change /veh GSTM3 (11746129_a_at) / RFU IL23R (11737362_x_at) / Fold change /veh IL23R (11737362_x_at) / RFU TMEM51 (11727254_a_at) / Fold change /veh TMEM51 (11727254_a_at) / RFU PIWIL2 (11732686_x_at) / Fold change /veh PIWIL2 (11732686_x_at) / RFU ORM1 (11744905_x_at) / Fold change /veh ORM1 (11744905_x_at) / RFU CCDC152 (11743942_at) / Fold change /veh CCDC152 (11743942_at) / RFU ECM1 (11717891_a_at) / Fold change /veh ECM1 (11717891_a_at) / RFU IL23R (11748794_a_at) / Fold change /veh IL23R (11748794_a_at) / RFU TNFAIP8L3 (11732012_x_at) / Fold change /veh TNFAIP8L3 (11732012_x_at) / RFU MBOAT4 (11741988_at) / Fold change /veh MBOAT4 (11741988_at) / RFU 11764193_at / Fold change /veh 11764193_at / RFU TMEM53 (11763286_at) / Fold change /veh TMEM53 (11763286_at) / RFU MAGEB2 (11727129_at) / Fold change /veh MAGEB2 (11727129_at) / RFU TMEM200A (11744735_a_at) / Fold change /veh TMEM200A (11744735_a_at) / RFU CCDC152 (11751479_a_at) / Fold change /veh CCDC152 (11751479_a_at) / RFU FAM211A (11726209_a_at) / Fold change /veh FAM211A (11726209_a_at) / RFU RGS16 (11746705_a_at) / Fold change /veh RGS16 (11746705_a_at) / RFU VCAN (11755009_s_at) / Fold change /veh VCAN (11755009_s_at) / RFU RHOB (11743442_s_at) / Fold change /veh RHOB (11743442_s_at) / RFU RGS16 (11720943_a_at) / Fold change /veh RGS16 (11720943_a_at) / RFU RGS16 (11720944_at) / Fold change /veh RGS16 (11720944_at) / RFU, VPS4B / Fold change vs veh, VPS4B / RFU, CREB1 / Fold change vs veh, CREB1 / RFU, DNAJC13 / Fold change vs veh, DNAJC13 / RFU, GNAQ / Fold change vs veh, GNAQ / RFU, CDK5R1 / Fold change vs veh, CDK5R1 / RFU, ZRANB3 / Fold change vs veh, ZRANB3 / RFU, CUL4A / Fold change vs veh, CUL4A / RFU, CCNY / Fold change vs veh, CCNY / RFU, UFL1 / Fold change vs veh, UFL1 / RFU, COG3 / Fold change vs veh, COG3 / RFU, DIAPH2 / Fold change vs veh, DIAPH2 / RFU, SKA2 / Fold change vs veh, SKA2 / RFU, AFF3 / Fold change vs veh, AFF3 / RFU, LMF1 / Fold change vs veh, LMF1 / RFU, IPO11 / Fold change vs veh, IPO11 / RFU, DFFB / Fold change vs veh, DFFB / RFU, FOXP1 / Fold change vs veh, FOXP1 / RFU, CARD8 / Fold change vs veh, CARD8 / RFU, STRN3 / Fold change vs veh, STRN3 / RFU, ADK / Fold change vs veh, ADK / RFU, RASSF2 / Fold change vs veh, RASSF2 / RFU, WIPF1 / Fold change vs veh, WIPF1 / RFU, LARP1B / Fold change vs veh, LARP1B / RFU, RASA1 / Fold change vs veh, RASA1 / RFU, RB1 / Fold change vs veh, RB1 / RFU, PPFIA1 / Fold change vs veh, PPFIA1 / RFU, MAT2A / Fold change vs veh, MAT2A / RFU, CCT5 / Fold change vs veh, CCT5 / RFU, WDR92 / Fold change vs veh, WDR92 / RFU, CUX1 / Fold change vs veh, CUX1 / RFU, TTC7A / Fold change vs veh, TTC7A / RFU, TMEM135 / Fold change vs veh, TMEM135 / RFU, DEPTOR / Fold change vs veh, DEPTOR / RFU, CPM / Fold change vs veh, CPM / RFU, DNAJB6 / Fold change vs veh, DNAJB6 / RFU, CACNA2D3 / Fold change vs veh, CACNA2D3 / RFU, DTX4 / Fold change vs veh, DTX4 / RFU, TFCP2 / Fold change vs veh, TFCP2 / RFU, GMCL1 /// GMCL1P1 / Fold change vs veh, GMCL1 /// GMCL1P1 / RFU, AEBP2 / Fold change vs veh, AEBP2 / RFU, SNHG1 /// SNORD22 /// SNORD25 /// SNORD26 /// SNORD27 /// SNORD28 /// SNORD29 /// SNORD31 / Fold change vs veh, SNHG1 /// SNORD22 /// SNORD25 /// SNORD26 /// SNORD27 /// SNORD28 /// SNORD29 /// SNORD31 / Fold change (Aza/veh), C12orf56 (ProbeSet 11735607_a_at) / Fold change (ACY-1035/veh), C12orf56 (ProbeSet 11735607_a_at) / Fold change (Aza/veh), FGFR1OP (ProbeSet 11751329_s_at) / Fold change (ACY-1035/veh), FGFR1OP (ProbeSet 11751329_s_at) / Fold change (Aza/veh), VPS36 (ProbeSet 11739960_a_at) / Fold change (ACY-1035/veh), VPS36 (ProbeSet 11739960_a_at) / RFU SYPL1 (11715823_x_at) / Fold change /veh SYPL1 (11715823_x_at) / RFU IGFBP7 (11715501_s_at) / Fold change /veh IGFBP7 (11715501_s_at) / RFU REEP3 (11722064_at) / Fold change /veh REEP3 (11722064_at) / RFU IGLL1 (11728026_x_at) / Fold change /veh IGLL1 (11728026_x_at): dose or concentration left out as unconfirmed
Conditions: ProbeSet 11758779_at; LIST B

Nc1ccc(-c2cccs2)cc1NC(=O)c1ccc2c(c1)cc(C1CC1)n2CCN1CCOCC1 [ACY-1035]
Fold change vs veh, TMEM50B: 0.95
